As a reminder, the IC50 is the midpoint of a concentration-inhibition curve. One may read the EC50 as the concentration at which the effect is half-maximal.

Where two headings read alike, the source gives them in different places.

The subject of series [1] is DFMO treated Chinese hamster ovary (CHO) cells. Briefly: DFMO/spermidine rescue assay in CHO cells (Assay 2). The series is classed as cell-based. The following applies: Cricetulus griseus. The protocol:
In the reconfirmation assay compounds were run in quadruplicate. […] A PTI compound is expected to block the entry or disrupt the intracellular trafficking of spermidine and inhibit the ability of spermidine to rescue the growth or viability of DFMO treated cells.
DFMO/Spermidine assay Here cells were treated with an inhibitor of polyamine biosynthesis (DFMO) and rescued back to high viability by the presence of exogenous polyamine (spermidine). Putative PTI compounds were screened for their ability to block the entry or intracellular trafficking of exogenous spermidine (or otherwise disrupt the intracellular trafficking of spermidine) by measuring cell viability in the presence of DFMO+spermidine+PTI compound. […] This was followed by adding 10 μL of […] and 5 μM spermidine (FAC 5 mM DFMO and 1 μM spermidine) in assay medium with a Beckman BioRAPTR FRD dispenser or 10 μL of 5 mM DFMO added in assay medium (positive control). […] A PTI compound is expected to block the entry or disrupt the intracellular trafficking of spermidine and inhibit the ability of spermidine to rescue the growth or viability of DFMO treated cells Cytotoxicity

For series [2], the system named is CHO cells. The experiment in a line: Ant44 rescue assay in CHO cells (Assay 1). It is filed as cell-based, Chinese hamster. The following applies: for IC50: CHO, Table 7, read-out: SAR IC50 Ant44 assay. The procedure: CHO K1 cells were grown in growth medium (RPMI+10% FBS+1×P/S+1% l-glutamine) to 70% confluency, washed in PBS and trypsinized. Cells were plated in assay medium (serum free RPMI+2% FBS+1×l-glutamine+1×P/S+[…] aminoguanidine) at 50000 cells/mL for 200 cells per well in 4 ul using a Thermo Multidrop Combi into a 1536-well white Aurora plate.
Ant44 is a cytotoxic polyamine, i.e., N^1-(9-anthracenyl)-homospermidine. A non-toxic PTI compound would block entry or intracellular trafficking of the Ant44 toxin and rescue the cells back to high viability. Therefore, this screen tested for compounds which rescued cells from Ant44 toxicity. […] This was followed by adding 10 uL of 10 uM Ant44 (FAC 2 uM) in assay medium with a Beckman BioRAPTR FRD dispenser or 10 uL of cells added in assay medium (positive control).

Series [3] concerns CHO cells. The experiment in a line: Cytotoxicity screen in CHO cells. To be noted: for IC50 at 48 h: Chinese hamster, CHO K1 cells. The procedure: CHO K1 cells were grown in growth medium to 70% confluency and washed in PBS and trypsinized. […] Cells were spun at 100×g for 1 minute and incubated at 37° C. in a humidified CO2 incubator for 24 hours. […] Cellular ATP content was then assayed by adding 3 uL of ATPLite with a Beckman BioRAPTR FRD dispenser and incubated for 10 minutes at room temperature. Plates were spun at 200×g for 1 minute and read on a Perkin Elmer Viewlux multimode plate reader using luminescence mode. This assay was used for testing dose-response of dry powders.
CHO K1 cells were grown in growth medium to 70% confluency and washed in PBS and trypsinized. Cells were plated in assay medium at 10000 cells/mL for 200 cells per well using a Thermo Multidrop Combi in 20 uL into a white Greiner plate. Cells were spun at 100×g for 1 minute and incubated at 37° C. in a humidified CO2 incubator for 24 hours. […] This was followed by adding by 10 μL of assay medium to all wells with a Beckman BioRAPTR FRD dispenser. The plates were spun at 200×g for 1 minute and incubated at 37° C. in a humidified 5% CO2 incubator for 48 hours. Cellular ATP content was then assayed by adding 20 μL of ATPLite with a Beckman BioRAPTR FRD dispenser and incubated for 10 min at room temperature. Plates were spun at 200×g for 1 minute and read on a Perkin Elmer Envision for multimode plate reader using luminescence mode. Duplicates were run for each compound concentration, and the curves represent the average of the duplicates as percent viability.
The final compound concentration was either 20 μM or 10 μg/mL (depending upon the compound source). A successful PTI in Assay 1 would block the uptake of the toxic Ant44 probe and rescue the cells back to >90% relative growth vs an untreated control. It was critical to also evaluate the toxicity of the PTI by itself as a toxic PTI would give a false negative in Assay1 (and a false positive in Assay 2). […] Assay 2 then evaluated the ability of the compound to inhibit the uptake of a rescuing dose of Spermidine (Spd, 1 μM) into DFMO-treated CHO cells.

[4] abbreviates: CHO, Table 7, read-out: SAR IC50 DFMO assay.
Setting [5] is: Table 1 HTS top hits, CHO cells, read-out: DFMO Assay IC50.
[6] abbreviates: Table 1 HTS top hits, CHO cells.

Consider `COc1ccc(C(=O)Nc2ccc(N3CCN(c4cc(Cl)ccc4C)CC3)c(C(=O)O)c2)cc1` [SBI-0800662], for which the results for the IC50 (in series [1] (setting [4]); in series [1] (setting [5]); in the series with CHO cells [2] (Cricetulus griseus)) were 5 µM, approximately 5 µM and more than 40 µM, respectively. Further, in the series on CHO cells [2] (setting [6]), the “Ant44 EC50” value is on record as “SBI- 0800662.0001 No effect”. Further, the 50% inhibitory concentration (IC50) at 48 h in the series with CHO cells [3] was 14 µM.
Turning to `COc1ccccc1N1CCN(c2ccc(NC(=O)c3ccccc3Cl)c(C(=O)O)c2)CC1` [SBI-0800670], the IC50 in series [1] (setting [5]) is 10 to 15 µM; with CHO cells [2] (Cricetulus griseus), 16 µM. In the series on CHO cells [2] (Cricetulus griseus, Table 1 HTS top hits, CHO cells, read-out: Ant44 EC50), the EC50 was found to be 20 µM. This compound also yielded an IC50 at 48 h in the series with CHO cells [3] of 36 µM. The “Tox (Ant44)” value in the series on CHO cells [3] (toxic above the stated concentration, CHO cells, listed with Ant44 assay) is “SBI- 0800670.0001 (20 EC50) Tox >20 μM”. The “tox (DFMO Assay)” value with CHO cells [3] (toxic above the stated concentration, CHO cells, listed with DFMO assay) is more than 15 µM.
`COc1ccccc1C(=O)Nc1ccc(N2CCN(C(=O)c3ccccn3)CC2)cc1C(=O)O` [SBI-0814424, 2-(2-methoxybenzamido)-5-(4-picolinoylpiperazin-1-yl)benzoic acid]: the IC50 (in series [1] (setting [4]); in the series on CHO cells [2] (Cricetulus griseus)) was more than 40 µM throughout. In the series on CHO cells [3], the IC50 at 48 h is more than 40 µM.
As for `COc1ccccc1N1CCN(c2ccc(N3C(=O)CCC3=O)cc2[N+](=O)[O-])CC1` [SBI-0800661], the IC50 was 30 µM in series [1] (setting [4]), more than 20 µM in series [1] (setting [5]) and more than 40 µM in the series with CHO cells [2] (Cricetulus griseus). Also, the “Ant44 EC50” value with CHO cells [2] (setting [6]) is “SBI- 0800661.0001 No effect”. The half-inhibitory concentration (IC50) at 48 h in the series with CHO cells [3] was determined as 27 µM.
On to `COC(=O)c1cc(N2CCN(c3cc(Cl)ccc3C)CC2)ccc1NC(=O)c1ccccc1OC` [SBI-0801724, methyl 5-(4-(5-chloro-2-methylphenyl)piperazin-1-yl)-2-(2-methoxybenzamido)benzoate], for which the IC50 (in series [1] (setting [4]); in the series on CHO cells [2] (Cricetulus griseus)) was more than 40 µM throughout. For the same compound, the IC50 at 48 h in the series on CHO cells [3] is more than 40 µM.
Regarding `COC(=O)c1cc(N2CCN(c3cc(Cl)ccc3C)CC2)ccc1NC(=O)c1ccc(OC)cc1OC` [SBI-0801723, methyl 5-(4-(5-chloro-2-methylphenyl)piperazin-1-yl)-2-(2,4-dimethoxybenzamido)benzoate], the IC50 (in series [1] (setting [4]); in the series on CHO cells [2] (Cricetulus griseus)) was more than 40 µM throughout. Also, the concentration for half-maximal inhibition (IC50) at 48 h in the series with CHO cells [3] is more than 40 µM.
Turning to `COC(=O)c1cc(N2CCN(c3cc(Cl)ccc3C)CC2)ccc1NC(=O)c1ccc(OC)cc1` [SBI-0801722, methyl 5-(4-(5-chloro-2-methylphenyl)piperazin-1-yl)-2-(4-methoxybenzamido)benzoate], the IC50 (in series [1] (setting [4]); with CHO cells [2] (Cricetulus griseus)) was more than 40 µM throughout. The compound also gave an IC50 at 48 h in the series with CHO cells [3] of more than 40 µM.
Regarding `COC(=O)c1cc(CN2CCN(c3ccccn3)CC2)ccc1NC(=O)c1ccccc1OC` [SBI-0814422, Methyl 2-(2-methoxybenzamido)-5-((4-(pyridin-2-yl)piperazin-1-yl)methyl)benzoate], the IC50 (in series [1] (setting [4]); in the series with CHO cells [2] (Cricetulus griseus)) was more than 20 µM in each case. The compound further came in with an IC50 at 48 h in the series on CHO cells [3] of more than 20 µM.
In the case of `COc1ccccc1C(=O)Nc1ccc(N2CCN(CCc3ccccc3)CC2)cc1C(=O)O` [SBI-0814415, 2-(2-methoxybenzamido)-5-(4-phenethylpiperazin-1-yl)benzoic acid], the IC50 (in series [1] (setting [4]); in the series on CHO cells [2] (Cricetulus griseus)) was more than 40 µM in each case. In the series with CHO cells [3], this compound showed an IC50 at 48 h of more than 40 µM.
On to `COc1ccc(C(=O)Nc2ccc(N3CCC(N4CCCCC4)CC3)cc2C(=O)O)cc1` [SBI-0800694], for which the IC50 in series [1] (setting [4]) was more than 40 µM. Besides, the IC50 at 48 h in the series on CHO cells [3] was more than 40 µM.
In the case of `NCCC[C@](N)(C(=O)O)C(F)F` [DFMO, alpha-difluoromethylornithine, reference compound], in the series on CHO cells [3] (Cricetulus griseus, CHO, 48 h, read-out: 48 h IC50), the IC50 was determined as 4.2 mM.
With `Cc1cccc(N2CCN(c3ccc(NC(=O)c4ccccc4F)cc3C(=O)O)CC2C)c1` (centres unmarked) [SBI-0800663], the IC50 in series [1] (setting [4]) was more than 40 µM. In addition, the IC50 at 48 h in the series on CHO cells [3] was more than 40 µM.
For `Cc1ccc(C)c(N2CCN(c3ccc(N4C(=O)CC(c5ccccc5)C4=O)cc3[N+](=O)[O-])CC2)c1` (centres unmarked) [SBI-0372958], the IC50 in series [1] (setting [4]) was 27 µM. This compound had an IC50 at 48 h with CHO cells [3] of 32 µM.
